# Measurements reported in patent publication US10758560B2, “Methods for treating sarcopenia and frailty” (NESTEC S.A., priority 2015, dated 2020).
# B1: neuregulin-1: NRG1 beta EGF domain from Reprokine (catalog number RKQ02297); SEQ ID NO: 7 (protein, listed as Homo sapiens)
# chain: SHLVKCAEKEKTFCVNGGECFMVKDLSNPSRYLCKCPNEFTGDRCQNYVMASFYKHLGIEF
# Key:
# [1] = system: neuromuscular junctions (nerve and muscle co-cultures); experiment: Nerve and muscle co-cultures, stronger beta-amyloid (10 μM) induced damage of neuromuscular junctions; assay type: cell-based; settings: longer incubation, NRG1 30 nM and/or AdoCbl 1 nM, FIG. 5
# Description: Nerve and muscle co-cultures were grown in vitro until neuromuscular junctions were mature. Damage was induced using beta-amyloid (Ab) incubation (10 μM) and riluzole (5 μM) was used as a positive control for preserving neuromuscular junctions from Ab-induced damage. The effect of neuregulin-1 (NRG1; 30 nM) and/or adenosylcobalamin (AdoCbl; 1 nM) on Ab-induced damage was evaluated by measuring the neuromuscular junction (NMJ) size or number. 6 wells per group were analysed and compared to a control condition (CTL) without Ab-induced damage.
# [2] = system: Tibialis anterior muscle fibers; experiment: Effect of vitamin B12 on skeletal muscle in vivo: tibialis anterior fiber size in aged rats; set-up: species or system rat; settings: 1 mg/kg s.c. 3 times per week for 5 months, type 2A fibers, FIG. 6
# Description: Pre-sarcopenic rats aged 16 months were treated for 5 months with either adenosylcobalamin (AdoCbl, C0884, Sigma aldrich), methylcobalamin (MeCbl, M9756, Sigma aldrich) or saline. AdoCbl and MeCbl were injected sub-cutaneously at 1 mg/kg body weight 3 time per week. Tibialis Anterior (TA) was then dissected out and frozen for further analyses. For histology, TA was cryo-sectioned at 10 μm and stained with laminin (L9393, Sigma aldrich) to delineate fibers. Specific fiber types 1, 2A and 2B were immunolabeled subsequently with appropriate antibodies (clones BADS, BFF3, and SC71 respectively, DSHB). Images were acquired using a slide scanner (VS-120, Olympus) and analyzed using an in-house MetaXpress journal (Molecular Devices, Sunnyvale, USA). Images from old animals were compared to a group of adult healthy rats (8 months at start of experiment) injected with saline control. For gene expression analysis, total RNA was extracted using the miRNeasy Mini Kit (Qiagen) according to the manufacturer's instruction and RNA quality was checked using the Standard Sensitivity RNA Analysis Kit on a Fragment Analyzer (Advanced Analytical Technologies). Samples were then hybridized on Affymetrix Rat 230 PM 96-Array following standard Affymetrix protocol, based on the Eberwine T7 procedure. […]
# [3] = system: neuromuscular junctions (nerve and muscle co-cultures); experiment: Nerve and muscle co-cultures, beta-amyloid (2.5 μM) induced damage of neuromuscular junctions; assay type: cell-based; settings: for protection from Ab-induced damage (neuromuscular junction size, number and neurite network): 1 or 100 nM, FIG. 4
# Description: Nerve and muscle co-cultures were grown in vitro until neuromuscular junctions were mature. Damage was induced using beta-amyloid (Ab) incubation (2.5 μM) and riluzole (5 μM) was used as a positive control for preserving neuromuscular junctions from Ab-induced damage.
# The effect of neuregulin-1 (NRG1; various concentrations, as specified in FIG. 2) on Ab-induced damage was evaluated by measuring the neuromuscular junction (NMJ) size. 6 wells per group were analysed and compared to a control condition. The uninjured control condition is the neuromuscular junction size without Ab treatment. All other conditions are to be compared to the Ab treatment alone which represents the reference value for damaged neuromuscular junction size.
# Nerve and muscle co-cultures were grown in vitro until neuromuscular junctions were mature. Damage was induced using beta-amyloid (Ab) incubation (2.5 μM) and riluzole (5 μM) was used as a positive control for preserving neuromuscular junctions from Ab-induced damage. The effect of methylcobalamin (MeCbl; 1 or 100 nM) and adenosylcobalamin (AdenoCbl; 1 or 100 nM) on Ab-induced damage was evaluated by measuring the neuromuscular junction (NMJ) number and size, and the neurite network. 6 wells per group were analysed and compared to a control condition (CTL). The uninjured control condition is the neuromuscular junction size without Ab treatment. All other conditions are to be compared to the Ab treatment alone which represents the reference value for damaged neuromuscular junction size.
# HSMM human myoblasts = experiment: TNFa-induced myotube atrophy in HSMM human myoblasts (fusion index); assay type: cell-based; settings: TNFa 40 ng/ml for 4 days; 1 nM; FIG. 7
# Description: HSMM human myoblasts were grown in vitro and induced to differentiate into mature myotubes. Myotube atrophy was induced by incubation with TNFa at 40 ng/ml for 4 days. MeCbl (1 nM) and AdoCbl (1 nM) were incubated together with TNFa to test their effect on induced atrophy. IGF1 is used as a positive control at 15 nM to prevent muscle atrophy. After 4 days of treatment, cells were stained for nuclei and myosin heavy chain to quantify the proportion of nuclei inside myotubes (i.e fusion index).
# [4] = system: hind-limb skeletal muscle; experiment: Age-induced atrophy of skeletal muscle in pre-sarcopenic rats (hind-limb skeletal muscle mass); assay type: in vivo, rat; settings: pre-sarcopenic rats aged 16 months, 1 μg/kg s.c. 3 times per week for 5 months, versus saline controls; FIG. 3
# Description: Pre-sarcopenic rats aged 16 months were treated for 5 months with either neuregulin-1 (NRG1; NRG1 beta EGF domain from Reprokine (catalog number RKQ02297)) or saline. NRG1 was injected sub-cutaneously at 1 μg/kg body weight 3 time per week. Hind-limb skeletal muscle mass was then evaluated and compared to a group of adult healthy rats (8 months at start of experiment) injected with saline control. […]
molecule,measurement,setting,value
"C/C1=C2/[N-][C@H]([C@H](CC(N)=O)[C@@]2(C)CCC(=O)NC[C@@H](C)OP(=O)([O-])O[C@H]2[C@@H](O)[C@@H](n3cnc4cc(C)c(C)cc43)O[C@@H]2CO)[C@]2(C)N=C(/C(C)=C3N=C(/C=C4N=C1[C@@H](CCC(N)=O)C\4(C)C)[C@@H](CCC(N)=O)[C@]\3(C)CC(N)=O)[C@@H](CCC(N)=O)[C@]2(C)CC(N)=O.[CH2-][C@H]1O[C@@H](n2cnc3c(N)ncnc32)[C@H](O)[C@@H]1O.[Co] [adenosylcobalamin, Adenosylcobalamin]",rescue of neuromuscular junctions (number and size) from stronger Ab-induced damage,[1],neither neuregulin-1 nor adenosylcobalamin alone could rescue the system
same,increase in muscle fiber size,[2],able to induce an increase in muscle fiber size
same,"protection from Ab-induced damage (neuromuscular junction size, number and neurite network)",[3],able to protect the system at both doses tested
"C/C1=C2/[N-][C@H]([C@H](CC(N)=O)[C@@]2(C)CCC(=O)NC[C@H](C)OP(=O)([O-])O[C@H]2[C@@H](O)[C@@H](n3cnc4cc(C)c(C)cc43)O[C@@H]2CO)[C@]2(C)N=C(/C(C)=C3N=C(/C=C4N=C1[C@@H](CCC(N)=O)C\4(C)C)[C@@H](CCC(N)=O)[C@]\3(C)CC(N)=O)[C@@H](CCC(N)=O)[C@]2(C)CC(N)=O.[CH3-].[Co+3] [methylcobalamin, Methylcobalamin]",increase in muscle fiber size,[2],"not methylcobalamin, was also able to induce an increase in muscle fiber size"
same,"protection from Ab-induced damage (neuromuscular junction size, number and neurite network)",[3],"not methylcobalamin, was also able to protect the system"
same,protection from muscle atrophy (fusion index),HSMM human myoblasts,able to protect from muscle atrophy
B1,rescue of neuromuscular junctions (number and size) from stronger Ab-induced damage,[1],neither neuregulin-1 nor adenosylcobalamin alone could rescue the system
same,protection of the neuromuscular system from Ab-induced damage (neuromuscular junction size),"[3]; NRG1 at a dose of 30 nM, FIG. 2",able to protect the neuromuscular system from damage
same,hind-limb skeletal muscle mass,[4],significantly higher mass compared to controls
